In article PMC9181915, “Synthesis and Anti-Neuroinflammatory Activity of 1,7-diphenyl-1,4-heptadien-3-ones in LPS-Stimulated BV2 Microglia Via Inhibiting NF-κB/MAPK Signaling Pathways” (Molecules, 2022):

Legend:
[1] = MTT cell viability assay in BV2 microglia cells; type: cell-based; conditions: mouse, mean ± SD, n = 3
Method: (§1) The BV2 microglial cells were purchased from the China Center for Type Culture Collection, CCTCC (Wuhan, Hubei). BV2 microglia cells were incubated in DMEM media supplemented with 10% (v/v) FBS, 100 U/mL penicillin G and […] streptomycin at 37 °C with 5% CO2.
Cell viability assays were evaluated using a 3-(4,5-dimethylthiazol-2-yl)-2,5-diphenyltetrazolium bromide (MTT) assay. BV2 microglia cells were seeded in 96-well plates at a density of 1.6 × 10^5 cells/well in complete medium and incubated for 24 h. Then, the culture medium was sucked and discarded, and sterile PBS was added for washing, and then PBS was removed. Then the cells were treated with different concentrations of target compounds for 24 h. An amount equal to 100 μL of MTT was added to each well and the cells were further incubated for 2–4 h. An amount equal to 150 μL of DMSO was added into a 96-well plate and vibrated with micro-oscillator for 10 min. The optical density (A) was measured at […] on a microplate reader. The inhibitory rate of the various concentrations of agents in BV2 cells was calculated using the following formula:Cell viability (%) = [A492 (sample) − A492 (blank)]/[A492 (control) − A492 (blank)] × 100%

[2] = test system: LPS-induced NO release in BV2 cells; assay: Inhibition of LPS-induced NO release in BV2 cells; type: cell-based; conditions: Mus musculus, BV-2; for inhibition at 3 µM: pretreated 1 h, then LPS 1 μg/mL for 24 h, BV2 cells; for IC50: BV2 cells, 0.3, 1.0, 3.0 μM, LPS 1 μg/mL 24 h, mean ± SD, n = 3, read-out: IC50 to inhibit LPS-induced NO release
Method: as §1
Nitrite, a stable product of nitric oxide, was used to assess NO production. To study the effects of the compounds on NO production, BV2 microglia cells in the logarithmic phase were plated at 1 × 10^5 cells/well in a 24-well microplate and incubated in DMEM medium (10% FBS) overnight. The cells were pretreated with various concentrations of the test compounds for 1 h and further co-cultured with 1 μg/mL LPS and 5% CO2 for 24 h in a 37 °C incubator; then, the supernatant was taken and stored at −20 °C for NO detection. The target compound and LPS were configured with DMEM medium (2% FBS). The determination of NO was carried out according to the instructions. Unpretreated and unstimulated BV2 microglia cells were conducted as the blank control group. The absorbance value was determined at 540 nm, and the corresponding NO content was calculated by using the standard curve. The NO inhibitory rate of the various concentrations of agents in BV2 cells was calculated as per the following formula:Inhibition rate (%) = (LPS(NO concentration) − sample(NO concentration))/(LPS(NO concentration) − negative control(NO concentration)) × 100%.

IL-6 = assay: LPS-induced IL-6 release in BV2 cells (ELISA); type: cell-based, mouse; conditions: 3 µM, 1 h pretreatment, LPS 1 μg/mL 24 h, vs. LPS alone
Method: (§2) BV2 microglia cells were seeded at 1 × 10^5 cells/well in a 24-well microplate and incubated overnight. […] CU-19, CU-21 and LPS were configured with DMEM medium (2% FBS). According to the protocol of the manufacturer, supernatant was harvested at the 24th hour for the assay of IL-6, TNF-α and PGE-2 with ELISA kits (Absin Shanghai, China). Briefly, 100 μL of biotinylated antibody reagent and the culture supernatant were added to anti-mouse IL-6, TNF-α and PGE-2-precoated 96-well plates, and the plates were incubated for 2.5 h at room temperature. The plate was washed with a washing buffer and subsequently incubated with 100 μL of the streptavidin–HRP solution for 20 min at room temperature. The plate was washed and incubated with 100 μL of TMB substrate solution for 20 min at room temperature in the dark. The reaction was stopped by adding 50 μL of stop solution, and then the absorbance was measured at 450 nm by a plate reader. The average value was substituted into the standard curve to obtain the […] concentration.

TNF-α = assay: LPS-induced TNF-α release in BV2 cells (ELISA); type: cell-based, mouse; conditions: 3 µM, 1 h pretreatment, LPS 1 μg/mL 24 h, vs. LPS alone
Method: as §2

PGE-2 = assay: LPS-induced PGE-2 release in BV2 cells (ELISA); type: cell-based, mouse; conditions: 3 µM, 1 h pretreatment, LPS 1 μg/mL 24 h, vs. LPS alone
Method: as §2

iNOS = assay: LPS-induced iNOS expression in BV2 cells (Western blot); type: cell-based; conditions: 3 μM, 1 h pretreatment, LPS 1 μg/mL 24 h
Method: (§3) CU-19, CU-21 and LPS were configured with DMEM medium (2% FBS). The cells were collected and washed three times with ice-cold PBS. The lysate (containing 1% protease inhibitor and phosphatase inhibitor) was added to the collected cells for suspension, and the cells were lysed by ultrasonic crusher. Then the cell lysates were centrifuged (14,000 rpm, 10 min, 4 °C) […] and collect the supernatant. Aliquots of the lysates were separated on 10% sodium dodecyl sulphate (SDS)-polyacrylamide gel electrophoresis (PAGE) and then electro blotted onto a polyvinylidene difluoride (PVDF) membrane. The blots were blocked with 5% (w/v) nonfat dry milk for 2 h at room temperature, followed by incubation with specific primary antibodies at 4 °C overnight. Blots were washed with PBST and incubated with secondary antibody for 2 h, after which an ECL reagent was used for chemiluminescent detection.

COX-2 = assay: LPS-induced COX-2 expression in BV2 cells (Western blot); type: cell-based; conditions: 3 μM, 1 h pretreatment, LPS 1 μg/mL 24 h
Method: as §3

NF-κB = assay: LPS-induced NF-κB nuclear translocation in BV2 cells (immunofluorescence); type: cell-based; conditions: 3 μM with LPS, 24 h
Method: CU-19, CU-21 and LPS were configured with DMEM medium (2% FBS). After 24 h of treatment, cells were fixed with 4% paraformaldehyde for 18 min and washed three times with PBS (5 min per wash). The fixed cells were then permeabilized in […] for 15 min and washed three times with PBS (5 min per wash). Nonspecific binding sites were blocked with 5% goat serum for 30 min. These cells were then incubated with anti-NF-κB antibody at a dilution of 1:400 overnight at 4 °C. After washing with PBS three times, cells were incubated with fluorescent-conjugated secondary antibody (1:150) for 1 h, and counterstained with DAPI (1:50) at room temperature for 15 min in the dark. Cells were then washed and imaged via confocal microscopy.

JNK = assay: LPS-induced JNK phosphorylation in BV2 cells (Western blot); type: cell-based; conditions: 3 μM, 1 h pretreatment, LPS 1 μg/mL 24 h
Method: as §3

ERK = assay: LPS-induced ERK phosphorylation in BV2 cells (Western blot); type: cell-based; conditions: 3 μM, 1 h pretreatment, LPS 1 μg/mL 24 h
Method: as §3

p38 = assay: LPS-induced p38 phosphorylation in BV2 cells (Western blot); type: cell-based; conditions: 3 μM, 1 h pretreatment, LPS 1 μg/mL 24 h
Method: as §3

[3] = In vivo pharmacokinetic study in rats; set-up: species or system Sprague–Dawley male rats; conditions: for AUC(0-inf) / AUC(0-t) / Cmax / half-life / MRT last / MRT inf: male, Sprague-Dawley, rat plasma, mean ± SD, n = 4; for AUC(0-inf) / AUC(0-t) / Cmax / half-life / MRT last / MRT inf / Increase of T1/2 in comparison with that of CU: single intravenous dose 20 mg/kg; for MRT last: read-out: MRT (0-t) (converted); for MRT inf: read-out: MRT (0-∞) (converted); for Metabolites detected in plasma by HPLC: rat plasma after intravenous 20 mg/kg, chromatograms at 5, 10, 20 min (Figures S1–S9); for Increase of T1/2 in comparison with that of CU: rat
Method: After a single intravenous dose of 20 mg/kg, 0.5 mL of blood was obtained from the fossa orbitalis veniplex of rats at 5, 10, 20, 30, 45, 60, 120, 180 and 240 min. HPLC was used to determine the concentration of each compound in plasma and the DAS software was used for the noncompartmental pharmacokinetic analysis of the plasma concentration–time data.
Sprague–Dawley male rats, 200–240 g, were housed in cages in an airconditioned room with light dark cycle of 12 h before the experiment started. The animals were fasted for 12 h with water ad libitum. […] The administration volume was 6 mL per kg of body weight. The compounds were dissolved in PEG400 (10% of the administration volume) and water (90% of the administration volume) and sonicated for 30 min. After tail vein injection administration at a dose of 20 mg/kg, 0.5 mL blood was obtained from fossa orbitalis veniplex of rats at 5, 10, 20, 30, 45, 60, 120, 180 and 240 min. Whole blood samples were collected in heparinized tubes and the plasma was immediately centrifuged (10,000 rpm, 10 min, 4 °C) and then stored at −20 °C until analysis. The calibration standards and the plasma samples were extracted by protein precipitation using methanol.

## COc1ccc(/C=C/C(=O)/C=C/CCc2ccccc2)cc1OC [CU-19, (1E,4E)-1-(3,4-dimethoxyphenyl)-7-phenyl-1,4-heptadien-3-one]
[1]
  viability at 24 h, 1 µM: 96.94 ± 0.03%
  viability at 24 h, 3 µM: 96.33 ± 0.02%
  viability at 24 h, 10 µM: 67.91 ± 0.37%
[2]
  inhibition at 3 µM: 50.3%
  IC50: 1600 ± 310 nM
IL-6
  Inhibition of LPS-induced IL-6 release: significantly inhibited
TNF-α
  Inhibition of LPS-induced TNF-α release: significantly inhibited
PGE-2
  Inhibition of LPS-induced PGE-2 release: significantly inhibited
iNOS
  Inhibition of LPS-induced iNOS expression: significantly inhibited
COX-2
  Inhibition of LPS-induced COX-2 expression: significantly inhibited
NF-κB
  Inhibition of LPS-induced NF-κB nuclear translocation: able to inhibit NF-κB nuclear translocation
JNK
  JNK phosphorylation compared to the LPS group: significantly decreased
ERK
  ERK phosphorylation compared to the LPS group: significantly decreased
p38
  p38 phosphorylation compared to the LPS group: significantly decreased
[3]
  AUC(0-inf): 2220 ng·h/mL
  AUC(0-t): 1770 ng·h/mL
  Cmax: 3330 ± 393 ng/mL
  half-life: 2.25 ± 0.104 h
  MRT last: 1.02 h
  MRT inf: 2.12 h
  Metabolites detected in plasma by HPLC: no obvious metabolites
  Increase of T1/2 in comparison with that of CU: 4.5 fold

## COc1ccc(CC/C=C/C(=O)/C=C/c2ccccc2)cc1 [CU-21, (1E,4E)-7-(4-methoxyphenyl)-1-phenyl-1,4-heptadien-3-one]
[1]
  viability at 24 h, 1 µM: 96.94 ± 0.01%
  viability at 24 h, 3 µM: 94.55 ± 0.09%
  viability at 24 h, 10 µM: 77.89 ± 0.5%
[2]
  inhibition at 3 µM: 66.1%
  IC50: 1740 ± 660 nM
IL-6
  Inhibition of LPS-induced IL-6 release: significantly inhibited
TNF-α
  Inhibition of LPS-induced TNF-α release: significantly inhibited
PGE-2
  Inhibition of LPS-induced PGE-2 release: significantly inhibited
iNOS
  Inhibition of LPS-induced iNOS expression: significantly inhibited
COX-2
  Inhibition of LPS-induced COX-2 expression: significantly inhibited
NF-κB
  Inhibition of LPS-induced NF-κB nuclear translocation: able to inhibit NF-κB nuclear translocation
JNK
  JNK phosphorylation compared to the LPS group: significantly decreased
ERK
  ERK phosphorylation compared to the LPS group: significantly decreased
p38
  p38 phosphorylation compared to the LPS group: significantly decreased
[3]
  AUC(0-inf): 3530 ng·h/mL
  AUC(0-t): 2830 ng·h/mL
  Cmax: 6850 ± 634 ng/mL
  half-life: 2.72 ± 0.613 h
  MRT last: 0.757 h
  MRT inf: 2.32 h
  Metabolites detected in plasma by HPLC: no obvious metabolites
  Increase of T1/2 in comparison with that of CU: 5.5 fold
other
  melting point: 58 to 60 °C
